Source: article PMC10502027, “Class III hybrid cluster protein homodimeric architecture shows evolutionary relationship with Ni, Fe-carbon monoxide dehydrogenases” (Nature Communications, 2023)

Biological target: T1, Mm HCP (Methanothermobacter marburgensis, UniProt D9PYV4)
T1 construct: full length with N-terminal rubredoxin domain (Met1-Arg52), C-terminal His6-tag, recombinant from E. coli C41(DE3) with pBBRISC, anaerobically purified; homodimer
T1 sequence (D9PYV4 1-491): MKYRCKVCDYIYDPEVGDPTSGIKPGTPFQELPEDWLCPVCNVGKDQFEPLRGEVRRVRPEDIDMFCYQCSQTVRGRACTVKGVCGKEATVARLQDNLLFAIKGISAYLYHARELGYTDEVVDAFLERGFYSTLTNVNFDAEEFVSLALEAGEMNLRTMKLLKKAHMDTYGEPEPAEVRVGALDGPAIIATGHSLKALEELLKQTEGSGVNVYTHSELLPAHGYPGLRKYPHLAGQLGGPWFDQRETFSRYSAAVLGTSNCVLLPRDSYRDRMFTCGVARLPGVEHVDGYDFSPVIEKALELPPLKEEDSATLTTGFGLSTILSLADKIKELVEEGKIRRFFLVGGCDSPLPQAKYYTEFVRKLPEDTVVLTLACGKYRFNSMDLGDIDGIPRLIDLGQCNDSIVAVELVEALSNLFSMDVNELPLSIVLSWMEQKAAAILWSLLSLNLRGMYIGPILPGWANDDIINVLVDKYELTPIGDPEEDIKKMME
Format: binding

SMILES: [S]12[Fe]3[S]4[Fe]1[S]1[Fe]2[S]3[Fe]41 [[4Fe-4S] cluster]
- X-ray crystal structure, 2.8 Å: The Fe ions, [4Fe-4S] cluster and hybrid cluster ([4Fe-2S-3O] cluster) are represented as spheres
